Reference: patent US9745310B2 (SK BIOPHARMACEUTICALS CO., LTD., priority 2015, dated 2017)

The compounds below were run against human mGluR5 receptor (Homo sapiens (Human), UniProt P41594) (assay: Calcium influx assay based on fluorescence (mGluR5 PAM activity)). Conditions: human mGluR5 receptor-overexpressed HEK293 cell line; L-glutamate EC20; Fluo-4, FLIPR.
Method: Efficacy as a positive allosteric modulator (PAM) of mGluR5 of the compounds of the Examples was tested as follows:
Calcium Influx Assay Based on Fluorescence
Ca^2+ (calcium) influx assay is an experiment for measuring the activity of a positive allosteric modulator of mGluR5 receptor in which human mGluR5 receptor-overexpressed HEK293 cell line is used. The day before the experiment, cells were prepared in a cell culture medium (DMEM, 5% FBS) with the density of 80,000/well, and 100 μl of cells were dispensed into each well of a poly-D-lysine-coated 96-well plate. Cells were incubated in a 5% CO2, 37° C. incubator. The next day, the cell culture medium was removed from the plate, and 100 μl of 1× Fluo-4 calcium indicator diluted with a buffer (1× Hank's balanced salt solution, 20 mM HEPES, 2.5 mM probenecid) were added to each well and incubated at 37° C. for 1 hour. The compound stock solutions were prepared in 100% DMSO, and the compounds were serially diluted with a ¼ dilution to 6 or 7 concentrations (final concentration was 10 μM to 10 nM). The diluted compound solutions were added to the plate with 0.1 to 0.2% of final DMSO concentration. 1 hour after the addition of Fluo-4 calcium indicator, L-glutamate (EC20 concentration) and the test compound solutions were added to the plate, and Ca^2+ reaction was then measured by FLIPR at room temperature. The activity of the compounds was standardized on the basis of the results of maximum value-minimum value of fluorescent reaction, and the activity value was calculated on the basis that no activity on glutamate EC20 is 0% and the reaction to glutamate maximum value is 100%.

Sequence of human mGluR5 receptor (P41594 21-1212): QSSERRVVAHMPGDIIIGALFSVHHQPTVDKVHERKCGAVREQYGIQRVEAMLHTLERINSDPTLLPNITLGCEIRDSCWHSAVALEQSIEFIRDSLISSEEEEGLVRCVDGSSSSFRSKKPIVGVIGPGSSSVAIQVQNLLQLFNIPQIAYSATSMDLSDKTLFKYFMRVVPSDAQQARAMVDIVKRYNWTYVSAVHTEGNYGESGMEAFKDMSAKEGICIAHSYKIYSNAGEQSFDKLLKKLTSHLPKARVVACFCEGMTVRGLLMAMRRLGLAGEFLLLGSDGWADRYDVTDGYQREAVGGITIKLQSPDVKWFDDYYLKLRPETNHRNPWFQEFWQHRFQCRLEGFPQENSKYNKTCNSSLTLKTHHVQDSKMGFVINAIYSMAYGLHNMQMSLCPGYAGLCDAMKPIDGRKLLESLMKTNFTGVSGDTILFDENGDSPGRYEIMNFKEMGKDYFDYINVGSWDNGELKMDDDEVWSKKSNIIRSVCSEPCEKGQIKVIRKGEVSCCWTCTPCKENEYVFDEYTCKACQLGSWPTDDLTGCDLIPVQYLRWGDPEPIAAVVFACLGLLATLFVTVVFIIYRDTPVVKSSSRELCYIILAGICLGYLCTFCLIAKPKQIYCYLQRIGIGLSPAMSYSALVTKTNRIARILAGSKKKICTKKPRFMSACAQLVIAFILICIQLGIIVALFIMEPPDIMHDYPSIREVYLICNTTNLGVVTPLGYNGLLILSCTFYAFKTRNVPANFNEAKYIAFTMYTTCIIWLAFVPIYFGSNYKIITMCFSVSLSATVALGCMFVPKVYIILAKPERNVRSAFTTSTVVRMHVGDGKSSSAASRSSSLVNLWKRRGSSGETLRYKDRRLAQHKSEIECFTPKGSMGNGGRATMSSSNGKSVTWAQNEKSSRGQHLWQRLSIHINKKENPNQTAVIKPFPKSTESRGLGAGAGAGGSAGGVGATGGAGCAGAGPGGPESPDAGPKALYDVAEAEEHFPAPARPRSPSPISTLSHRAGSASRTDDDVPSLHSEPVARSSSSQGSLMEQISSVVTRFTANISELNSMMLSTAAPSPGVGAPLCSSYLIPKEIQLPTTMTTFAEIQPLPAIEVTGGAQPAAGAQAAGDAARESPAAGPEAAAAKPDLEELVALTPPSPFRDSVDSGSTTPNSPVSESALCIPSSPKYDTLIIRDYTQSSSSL

EC50 [nM] | Compound
500 to 1000 | COc1ccc(-c2cnc3nc(COc4ccc(F)cc4)cn3c2)cc1N [Example 84, 5-[2-[(4-fluorophenoxy)methyl]imidazo[1,2-a]pyrimidin-6-yl]-2-methoxy-aniline]
100 to 500 | Fc1ccc(OCc2cn3cc(-c4ccc(F)cn4)cnc3n2)cc1 [Example 85, 2-[(4-fluorophenoxy)methyl]-6-(5-fluoro-2-pyridyl)imidazo[1,2-a]pyrimidine]
100 to 500 | COc1ccc(-c2cnc3nc(COc4ccc(F)cc4)cn3c2)nc1 [Example 86, 2-[(4-fluorophenoxy)methyl]-6-(5-methoxy-2-pyridyl)imidazo[1,2-a]pyrimidine]
500 to 1000 | Fc1ccc(OCc2cn3cc(-c4cnccc4Cl)cnc3n2)cc1 [Example 87, 6-(4-chloro-3-pyridyl)-2-[(4-fluorophenoxy)methyl]imidazo[1,2-a]pyrimidine]
100 to 500 | Fc1ccc(OCc2cn3cc(-c4cncc(Cl)c4)cnc3n2)cc1 [Example 88, 6-(5-chloro-3-pyridyl)-2-[(4-fluorophenoxy)methyl]imidazo[1,2-a]pyrimidine]
500 to 1000 | COc1cncc(-c2cnc3nc(COc4ccc(F)cc4)cn3c2)c1 [Example 89, 2-[(4-fluorophenoxy)methyl]-6-(5-methoxy-3-pyridyl)imidazo[1,2-a]pyrimidine]
100 to 500 | Oc1ccc(-c2cnc3nc(COc4ccc(F)cc4)cn3c2)cn1 [Example 90, 5-[2-[(4-fluorophenoxy)methyl]imidazo[1,2-a]pyrimidin-6-yl]pyridin-2-ol]
100 to 500 | Cc1ccc(-c2cnc3nc(COc4ccc(F)cc4)cn3c2)cn1 [Example 92, 2-[(4-fluorophenoxy)methyl]-6-(6-methyl-3-pyridyl)imidazo[1,2-a]pyrimidine]
100 to 500 | Fc1ccc(-c2cnc3nc(COc4cccc(F)c4)cn3c2)nc1 [Example 93, 2-[(3-fluorophenoxy)methyl]-6-(5-fluoro-2-pyridyl)imidazo[1,2-a]pyrimidine]
100 to 500 | Fc1cccc(OCc2cn3cc(-c4ccc(F)cc4C(F)(F)F)cnc3n2)c1 [Example 94, 2-[(3-fluorophenoxy)methyl]-6-[4-fluoro-2-(trifluoromethyl)phenyl]imidazo[1,2-a]pyrimidine]
100 to 500 | COc1cc(C#N)ccc1-c1cnc2nc(COc3cccc(F)c3)cn2c1 [Example 95, 4-[2-[(3-fluorophenoxy)methyl]imidazo[1,2-a]pyrimidin-6-yl]-3-methoxy-benzonitrile]
100 to 500 | OCc1cc(F)ccc1-c1cnc2nc(COc3cccc(F)c3)cn2c1 [Example 96, [5-fluoro-2-[2-[(3-fluorophenoxy)methyl]imidazo[1,2-a]pyrimidin-6-yl]phenyl]methanol]
100 to 500 | OCc1cc(F)ccc1-c1cnc2nc(COc3ccc(F)cc3)cn2c1 [Example 97, [5-fluoro-2-[2-[(4-fluorophenoxy)methyl]imidazo[1,2-a]pyrimidin-6-yl]phenyl]methanol]
100 to 500 | CSc1cc(F)ccc1-c1cnc2nc(COc3ccc(F)cc3)cn2c1 [Example 98, 6-(4-fluoro-2-methylsulfanyl-phenyl)-2-[(4-fluorophenoxy)methyl]imidazo[1,2-a]pyrimidine]
500 to 1000 | COc1cc(-c2cnc3nc(COc4ccc(F)cc4)cn3c2)ccn1 [Example 99, 2-[(4-fluorophenoxy)methyl]-6-(2-methoxy-4-pyridyl)imidazo[1,2-a]pyrimidine]
500 to 1000 | Cc1ccc(N)c(-c2cnc3nc(COc4cccc(F)c4)cn3c2)c1 [Example 100, 2-[2-[(3-fluorophenoxy)methyl]imidazo[1,2-a]pyrimidin-6-yl]-4-methyl-aniline]
100 to 500 | Nc1cc(F)ccc1-c1cnc2nc(COc3cccc(F)c3)cn2c1 [Example 101, 5-fluoro-2-[2-[(3-fluorophenoxy)methyl]imidazo[1,2-a]pyrimidin-6-yl]aniline]
100 to 500 | Fc1ccc(-c2cnc3nc(COc4ccccn4)cn3c2)cc1 [Example 102, 6-(4-fluorophenyl)-2-(pyridin-2-yloxymethyl)imidazo[1,2-a]pyrimidine]
100 to 500 | Cc1ccccc1-c1cnc2nc(COc3ccccn3)cn2c1 [Example 103, 6-(2-methylphenyl)-2-(pyridin-2-yloxymethyl)imidazo[1,2-a]pyrimidine]
100 to 500 | COc1cc(F)ccc1-c1cnc2nc(COc3ccccn3)cn2c1 [Example 104, 6-(4-fluoro-2-methoxyphenyl)-2-(pyridin-2-yloxymethyl)imidazo[1,2-a]pyrimidine]

EC50 [nM] | Compound
100 to 500 | Fc1ccc(-c2cnc3nc(COc4ccccn4)cn3c2)c(F)c1 [Example 105, 6-(2,4-difluorophenyl)-2-(pyridin-2-yloxymethyl)imidazo[1,2-a]pyrimidine]
100 to 500 | Cc1cc(F)ccc1-c1cnc2nc(COc3ccccn3)cn2c1 [Example 106, 6-(4-fluoro-2-methylphenyl)-2-(pyridin-2-yloxymethyl)imidazo[1,2-a]pyrimidine]
500 to 1000 | Fc1cccc(-c2cnc3nc(COc4ccccn4)cn3c2)c1F [Example 107, 6-(2,3-difluorophenyl)-2-(pyridin-2-yloxymethyl)imidazo[1,2-a]pyrimidine]
500 to 1000 | Cc1ccc(F)cc1-c1cnc2nc(COc3ccccn3)cn2c1 [Example 108, 6-(5-fluoro-2-methylphenyl)-2-(pyridin-2-yloxymethyl)imidazo[1,2-a]pyrimidine]
100 to 500 | Cc1c(F)cccc1-c1cnc2nc(COc3ccccn3)cn2c1 [Example 109, 6-(3-fluoro-2-methylphenyl)-2-(pyridin-2-yloxymethyl)imidazo[1,2-a]pyrimidine]
100 to 500 | Fc1ccc(-c2cnc3nc(COc4ccccn4)cn3c2)c2c1OCO2 [Example 110, 6-(7-fluoro-2H-benzo[1,3]dioxol-4-yl)-2-(pyridin-2-yloxymethyl)imidazo[1,2-a]pyrimidine]
100 to 500 | COc1cc(Cl)ccc1-c1cnc2nc(COc3ccccn3)cn2c1 [Example 111, 6-(4-chloro-2-methoxyphenyl)-2-(pyridin-2-yloxymethyl)imidazo[1,2-a]pyrimidine]
100 to 500 | COc1c(F)cccc1-c1cnc2nc(COc3ccccn3)cn2c1 [Example 112, 6-(3-fluoro-2-methoxy-phenyl)-2-(2-pyridyloxymethyl)imidazo[1,2-a]pyrimidine]
100 to 500 | Fc1ccc(-c2cnc3nc(COc4ccccn4)cn3c2)c(C(F)(F)F)c1 [Example 113, 6-[4-fluoro-2-(trifluoromethyl)phenyl]-2-(2-pyridyloxymethyl)imidazo[1,2-a]pyrimidine]
100 to 500 | Cc1cc(F)ccc1-c1cnc2nc(COc3ccc(F)cn3)cn2c1 [Example 114, 6-(4-fluoro-2-methyl-phenyl)-2-[(5-fluoro-2-pyridyl)oxymethyl)imidazo[1,2-a]pyrimidine]
100 to 500 | CCc1ccccc1-c1cnc2nc(COc3ccccn3)cn2c1 [Example 115, 6-(2-ethylphenyl)-2-(2-pyridyloxymethyl)imidazo[1,2-a]pyrimidine]
100 to 500 | Cc1ccc(-c2cnc3nc(COc4ccccn4)cn3c2)c(F)c1 [Example 117, 6-(2-fluoro-4-methyl-phenyl)-2-(2-pyridyloxymethyl)imidazo[1,2-a]pyrimidine]
100 to 500 | COc1cc(F)ccc1-c1cnc2nc(COc3cc(F)ccn3)cn2c1 [Example 118, 6-(4-fluoro-2-methoxy-phenyl)-2-[(4-fluoro-2-pyridyl)oxymethyl)imidazo[1,2-a]pyrimidine]
100 to 500 | Fc1ccc(OCc2cn3cc(-c4ccc(F)cc4C(F)(F)F)cnc3n2)nc1 [Example 119, 2-[(5-fluoro-2-pyridyl)oxymethyl]-6-[4-fluoro-2-(trifluoromethyl)phenyl]imidazo[1,2-a]pyrimidine]
100 to 500 | Fc1ccnc(OCc2cn3cc(-c4ccc(F)cc4F)cnc3n2)c1 [Example 120, 6-(2,4-difluorophenyl)-2-[(4-fluoro-2-pyridyl)oxymethyl)imidazo[1,2-a]pyrimidine]
100 to 500 | COc1c(F)cccc1-c1cnc2nc(COc3cc(F)ccn3)cn2c1 [Example 121, 6-(3-fluoro-2-methoxy-phenyl)-2-[(4-fluoro-2-pyridyl)oxymethyl)imidazo[1,2-a]pyrimidine]
500 to 1000 | Fc1ccnc(OCc2cn3cc(-c4cccc(F)c4F)cnc3n2)c1 [Example 122, 6-(2,3-difluorophenyl)-2-[(4-fluoro-2-pyridyl)oxymethyl)imidazo[1,2-a]pyrimidine]
100 to 500 | Fc1ccc(-c2cnc3nc(COc4cc(F)ccn4)cn3c2)cc1 [Example 123, 6-(4-fluorophenyl)-2-[(4-fluoro-2-pyridyl)oxymethyl)imidazo[1,2-a]pyrimidine]
100 to 500 | Cc1c(F)cccc1-c1cnc2nc(COc3ccc(F)cn3)cn2c1 [Example 124, 6-(3-fluoro-2-methyl-phenyl)-2-[(5-fluoro-2-pyridyl)oxymethyl)imidazo[1,2-a]pyrimidine]
100 to 500 | Fc1ccnc(OCc2cn3cc(-c4ccc(F)cc4C(F)(F)F)cnc3n2)c1 [Example 125, 2-[(4-fluoro-2-pyridyl)oxymethyl]-6-[4-fluoro-2-(trifluoromethyl)phenyl]imidazo[1,2-a]pyrimidine]
